Measurements taken from patent publication US20250312468A1, “ANTI-PROTAC ANTIBODIES AND COMPLEXES” (Merck Patent GmbH, priority 2021, published 2025).

molecular target: MIC2; test: SPR binding of PROTACs to immobilized antibody MIC2; settings: MIC2, 1:1 kinetic binding model
Description: The binding affinities of hit antibodies MIC1 and MIC2 to a diverse set of VH032-based PROTACs (FIGS. 8A-8B) was determined by surface plasmon resonance (SPR) in a Biacore T200 instrument. The running buffer consist of PBS, 0.05% Tween-20, 2% DMSO and temperature and flow rate were set to 30° C. and 30 μL/min, respectively. The assay setup is depicted exemplarily in FIG. 7A. CM5 sensor chips were coated with antibody (=ligand; 2500 RU) using standard EDC/NHS chemistry. PROTACs (=analytes) were serially diluted (1 μM-1.9 nM) in running buffer, injected to the instrument in consecutive runs and were captured by the antibody resulting in an increase of the corresponding SPR response. After the association step (300 s), running buffer was injected for 600 s and the PROTAC dissociated from the antibody leading to signal decrease. After each run, residual bound PROTAC was removed from the immobilized antibody by injection of 10 mM glycine/HCl, pH 1.5 for 2×30 s regenerating the antibody for the next association and dissociation cycle. To compensate for matrix effects, the measured SPR response signal was subtracted by the analyte response to an inactivated (EDC/NHS, ethanol amine) reference surface omitting the ligand. Furthermore, a DMSO solvent correction was performed and analyte response was subtracted by the running buffer signal. The corrected response was fitted by a 1:1 kinetic binding model yielding the on- (kon) and off-rate (koff) of the PROTAC, as well as its dissociation constant (KD).

SMILES	Kd	koff	kon
CC(=O)N1c2ccc(-c3ccc(C(=O)NCCOCCOCCOCC(=O)N[C@H](C(=O)N4C[C@H](O)C[C@H]4C(=O)NCc4ccc(-c5scnc5C)cc4)C(C)(C)C)cc3)cc2[C@H](Nc2ccc(Cl)cc2)C[C@@H]1C [MZP54]	0.42 nM	NM/8.40E−05 1/s	NM/2.00E+05 1/Ms
CC(=O)N1c2ccc(-c3ccc(C(=O)NCCOCCOCCOCCOCC(=O)N[C@H](C(=O)N4C[C@H](O)C[C@H]4C(=O)NCc4ccc(-c5scnc5C)cc4)C(C)(C)C)cc3)cc2[C@H](Nc2ccc(Cl)cc2)C[C@@H]1C [MZP55]	0.63 nM	NM/7.40E−05 1/s	NM/1.20E+05 1/Ms
Cc1nc(Nc2ncc(C(=O)Nc3c(C)cccc3Cl)s2)cc(N2CCN(C(=O)CCCCCCC(=O)N[C@H](C(=O)N3C[C@H](O)C[C@H]3C(=O)NCc3ccc(-c4scnc4C)cc3)C(C)(C)C)CC2)n1 [SIAIS178]	0.41 nM	NM/4.25E−05 1/s	NM/1.05E+05 1/Ms
COc1cc(-c2cn(C)c(=O)c3cnccc23)cc(OC)c1CN1CCN(CCCCCOc2cc(-c3scnc3C)ccc2CNC(=O)[C@@H]2C[C@@H](O)CN2C(=O)[C@@H](NC(=O)C2(F)CC2)C(C)(C)C)CC1 [VZ185]	> 1000 nM	–	–
CCCOc1cccc(Oc2cc3c(cc2NS(=O)(=O)c2cccc(C(=O)NCCOCCOCCOCC(=O)N[C@H](C(=O)N4C[C@H](O)C[C@H]4C(=O)NCc4ccc(-c5scnc5C)cc4)C(C)(C)C)c2)n(C)c(=O)n3C)c1 [dTRIM24]	0.42 nM	NM/1.64E−04 1/s	NM/3.92E+05 1/Ms

molecular target: CD33xMIC7; test: SPR affinity of VHH clone (antibody fusion) to PROTACs; settings: CD33xMIC7 immobilized, 25° C., read-out: KD [M] for antibody binding to PROTAC
Description: The kinetic and affinity parameters of protein-PROTAC interactions were evaluated by SPR. The anti-PROTAC VHH clones MIC5-MIC14 were immobilized as CD33 or CLL1 antibody fusion (the manufacturing of fusion proteins and the used linker is described in chapter 7.9) onto a CM5 (Series S) sensor chip via the standard amine coupling procedure, at 25° C. Prior to immobilization, the carboxymethylated surface of the chip was activated with 400 mM 1-ethyl-3-(3-dimethylaminopropyl)-carbodiimide and 100 mM N-hydroxysuccinimide for 7 min. Hit anti-PROTAC VHH as CD33 and CLL1 antibody fusions were diluted to 10 μg/ml in 10 mM Acetate at pH 4.5 and immobilized on the activated surface chip for 7 min, in order to reach 3,000 to 6,000 response units (RU). The remaining activated carboxymethylated groups were blocked with a 10 min injection of 1 M ethanolamine pH 8. HBS-N, which consists of 10 mM HEPES pH 7.4 and 150 mM NaCl, was used as the background buffer during immobilization. PROTACs were prediluted in DMSO, diluted 1:50 in running buffer (12 mM phosphate pH 7.4, 137 mM NaCl, 2.7 mM KCl, 0.05% Tween20, 2% DMSO) and injected at ten different concentrations using two-fold dilution series, from 1 μM to 0.002 μM. A DMSO solvent correction (1%-3%) was performed to account for variations in bulk signal and to achieve high-quality data. Interaction analysis cycles consisted of a 300 sec sample injection (30 μL/min; association phase) followed by 900 sec of buffer flow (dissociation phase).
All sensorgrams were processed by first subtracting the binding response recorded from the control surface (reference flow-channel), followed by subtracting of the buffer blank injection from the active flow-channel (target protein immobilized). All datasets were fit to a simple 1:1 Langmuir interaction model to determine the kinetic rate constants. Experiments were performed on a Biacore 8k+ (Cytiva, Uppsala, Sweden) at 25° C. and the interactions were evaluated using the provided Biacore Insight Evaluation software.

SMILES	Kd
Cc1nc(Nc2ncc(C(=O)Nc3c(C)cccc3Cl)s2)cc(N2CCN(C(=O)CCCCCCC(=O)N[C@H](C(=O)N3C[C@H](O)C[C@H]3C(=O)NCc3ccc(-c4scnc4C)cc3)C(C)(C)C)CC2)n1 [SIAIS178]	8.3e-09 M
